Source: PubChem BioAssay (NCI)
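1) Cells in 96-well plates. 2) Compound, 48 h, 5 concentrations. 3) Linear interpolation between surrounding doses. 4) Unreached endpoint = highest concentration. TGI marks complete inhibition of growth.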

Key:
Assay in all cases: NCI anticancer screen, dose series, 48 h
[1] = system: 786-0 renal
[2] = system: A498 renal
[3] = system: A549 NSCLC
[4] = system: ACHN renal
[5] = system: CAKI-1 renal
[6] = system: CCRF-CEM leukemia
[7] = system: COLO 205 colon
[8] = system: DLD-1 colon
[9] = system: DMS 114 small cell lung
[10] = system: DMS 273 small cell lung
[11] = system: EKVX NSCLC
[12] = system: HCT-116 colon
[13] = system: HCT-15 colon
[14] = system: HOP-18 NSCLC
[15] = system: HOP-62 NSCLC
[16] = system: HOP-92 NSCLC
[17] = system: HT29 colon
[18] = system: IGROV1 ovarian
[19] = system: K-562 leukemia
[20] = system: KM12 colon
[21] = system: KM20L2 colon
[22] = system: LOX IMVI melanoma
[23] = system: LXFL 529 NSCLC
[24] = system: M14 melanoma
[25] = system: M19-MEL melanoma
[26] = system: MALME-3M melanoma
[27] = system: MOLT-4 leukemia
[28] = system: NCI-H226 lung
[29] = system: NCI-H23 lung
[30] = system: NCI-H460 lung
[31] = system: NCI-H522 lung
[32] = system: OVCAR-3 ovarian
[33] = system: OVCAR-4 ovarian
[34] = system: OVCAR-5 ovarian
[35] = system: OVCAR-8 ovarian
[36] = system: RPMI-8226 leukemia
[37] = system: RXF 393 renal
[38] = system: SF-268 CNS
[39] = system: SF-295 CNS
[40] = system: SF-539 CNS
[41] = system: SK-MEL-2 melanoma
[42] = system: SK-MEL-28 melanoma
[43] = system: SK-MEL-5 melanoma
[44] = system: SK-OV-3 ovarian
[45] = system: SN12C renal
[46] = system: SNB-19 CNS
[47] = system: SNB-75 CNS
[48] = system: SNB-78 CNS
[49] = system: SW-620 colon
[50] = system: TK-10 renal
[51] = system: U251 CNS
[52] = system: UACC-257 melanoma
[53] = system: UACC-62 melanoma
[54] = system: UO-31 renal
[55] = system: XF 498 CNS
[56] = system: HCC-2998 colon
[57] = system: HL-60(TB) leukemia

Measured: TGI

O=C(N/C(=C\c1ccc(/C=C(\NC(=O)c2ccccc2)c2nc3cc(Cl)ccc3[nH]2)cc1)c1nc2cc(Cl)ccc2[nH]1)c1ccccc1
51.3 µM: [7]
50.4 µM: [10]
85.3 µM: [37]
78.5 µM: [40]
88.7 µM: [20]
53.8 µM: [31] | [42]
55.5 µM: [21]
25.4 µM: [36]
47.8 µM: [43]
39.8 µM: [27]
73.5 µM: [38]
99.6 µM: [41]
65 µM: [53]
76.1 µM: [13]
91.9 µM: [11]
66.2 µM: [12]
87 µM: [33]
71 µM: [19]
79 µM: [50]
not listed: [56] | [57]
> 100 µM: all other assays above

Nc1c(C(=O)N/N=C/c2ccc(Cl)cc2)sc(=S)n1-c1ccccc1
91.9 µM: [31]
not listed: [1] | [5] | [9] | [10] | [11] | [13] | [21] | [22] | [24] | [26] | [27] | [33] | [36] | [37] | [41] | [45] | [48] | [51] | [55]
> 100 µM: all other assays above
